Assay results from ChEMBL document CHEMBL1201862, “PubChem BioAssay data set” (2004).
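Results reflect a 48-hour exposure of cells in 96-well plates to compound at five concentrations. Here, GI50 denotes the concentration required for 50% inhibition of growth.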 Calls of active or inactive are those of the source. Cut-off read from the data, not from the text of the source: active = GI50 up to about 1.1 µM and inactive = higher.

Experiments:
Experiment in all cases: NCI-60 cell line screen, 48 h
RXF 631 = system: RXF 631
DMS-273 = system: DMS-273
M19-MEL = system: M19-MEL
LXFL 529 = system: LXFL 529
BT-549 = system: BT-549
DLD-1 = system: DLD-1
SNB-78 = system: SNB-78
MDA-N = system: MDA-N

Measured: GI50

O=c1cnn(C2OC(CO)C(O)C2O)c(=S)[nH]1 (stereo not drawn)
inactive: RXF 631 14.3 µM | DMS-273 2.31 µM | M19-MEL 43.1 µM | LXFL 529 11.5 µM | BT-549 > 100 µM | DLD-1 8.47 µM | SNB-78 > 91.2 µM | MDA-N > 100 µM
